# Results: patent US8192962B2, “Processes for detecting toxic substances” (Daikin Industries, Ltd., priority 2001, dated 2012)
# Test system: DNA repair protein genes
# Test: DNA chip mRNA expression in yeast, DNA repair protein genes (Table 3)
# Type: cell-based, Saccharomyces cerevisiae S288C
# Settings: incubated two hours, concentrations as in the 1st table
# In short: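 Chemical exposure: 2 h, log-phase S. cerevisiae S288C, YPD, 25° C., dose set to inhibit growth without death. Profiling: mRNA labeled by reverse transcription with Cy3- or Cy5-dUTP, hybridized to whole-genome array. Output: fluorescence ratio against untreated culture.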
smiles,measurement,setting,value
"CN(C)C(=S)SSC(=S)N(C)C [(10), Tetramethylthiuram disulfide]",The level of expressed mRNA in the presence of chemical substance/The level of expressed mRNA in the absence of chemical substance,yeast gene YAL015C,2.7
same,The level of expressed mRNA in the presence of chemical substance/The level of expressed mRNA in the absence of chemical substance,yeast gene YAR007C,1.7
same,The level of expressed mRNA in the presence of chemical substance/The level of expressed mRNA in the absence of chemical substance,yeast gene YBL019W,1.4
same,The level of expressed mRNA in the presence of chemical substance/The level of expressed mRNA in the absence of chemical substance,yeast gene YBR073W,1.8
same,The level of expressed mRNA in the presence of chemical substance/The level of expressed mRNA in the absence of chemical substance,yeast gene YBR272C,2.7
same,The level of expressed mRNA in the presence of chemical substance/The level of expressed mRNA in the absence of chemical substance,yeast gene YCR014C,1.0
same,The level of expressed mRNA in the presence of chemical substance/The level of expressed mRNA in the absence of chemical substance,yeast gene YDL017W,1.8
same,The level of expressed mRNA in the presence of chemical substance/The level of expressed mRNA in the absence of chemical substance,yeast gene YDL059C,7.8
same,The level of expressed mRNA in the presence of chemical substance/The level of expressed mRNA in the absence of chemical substance,yeast gene YDL200C,1.8
same,The level of expressed mRNA in the presence of chemical substance/The level of expressed mRNA in the absence of chemical substance,yeast gene YDR054C,3.2
same,The level of expressed mRNA in the presence of chemical substance/The level of expressed mRNA in the absence of chemical substance,yeast gene YDR369C,1.8
same,The level of expressed mRNA in the presence of chemical substance/The level of expressed mRNA in the absence of chemical substance,yeast gene YEL019C,0.7
same,The level of expressed mRNA in the presence of chemical substance/The level of expressed mRNA in the absence of chemical substance,yeast gene YEL037C,1.2
same,The level of expressed mRNA in the presence of chemical substance/The level of expressed mRNA in the absence of chemical substance,yeast gene YER162C,1.6
same,The level of expressed mRNA in the presence of chemical substance/The level of expressed mRNA in the absence of chemical substance,yeast gene YFL014W,5.8
same,The level of expressed mRNA in the presence of chemical substance/The level of expressed mRNA in the absence of chemical substance,yeast gene YGL058W,1.8
same,The level of expressed mRNA in the presence of chemical substance/The level of expressed mRNA in the absence of chemical substance,yeast gene YGL091C,6.0
same,The level of expressed mRNA in the presence of chemical substance/The level of expressed mRNA in the absence of chemical substance,yeast gene YGL127C,1.5
same,The level of expressed mRNA in the presence of chemical substance/The level of expressed mRNA in the absence of chemical substance,yeast gene YGL163C,2.3
same,The level of expressed mRNA in the presence of chemical substance/The level of expressed mRNA in the absence of chemical substance,yeast gene YGL249W,2.4
same,The level of expressed mRNA in the presence of chemical substance/The level of expressed mRNA in the absence of chemical substance,yeast gene YGR180C,1.5
same,The level of expressed mRNA in the presence of chemical substance/The level of expressed mRNA in the absence of chemical substance,yeast gene YGR231C,2.3
same,The level of expressed mRNA in the presence of chemical substance/The level of expressed mRNA in the absence of chemical substance,yeast gene YGR258C,1.5
same,The level of expressed mRNA in the presence of chemical substance/The level of expressed mRNA in the absence of chemical substance,yeast gene YHR164C,3.1
same,The level of expressed mRNA in the presence of chemical substance/The level of expressed mRNA in the absence of chemical substance,yeast gene YIL036W,2.7
same,The level of expressed mRNA in the presence of chemical substance/The level of expressed mRNA in the absence of chemical substance,yeast gene YIL072W,2.1
same,The level of expressed mRNA in the presence of chemical substance/The level of expressed mRNA in the absence of chemical substance,yeast gene YIL143C,3.5
same,The level of expressed mRNA in the presence of chemical substance/The level of expressed mRNA in the absence of chemical substance,yeast gene YIL153W,1.1
same,The level of expressed mRNA in the presence of chemical substance/The level of expressed mRNA in the absence of chemical substance,yeast gene YIR002C,1.4
same,The level of expressed mRNA in the presence of chemical substance/The level of expressed mRNA in the absence of chemical substance,yeast gene YJL026W,1.1
same,The level of expressed mRNA in the presence of chemical substance/The level of expressed mRNA in the absence of chemical substance,yeast gene YJR046W,2.4
same,The level of expressed mRNA in the presence of chemical substance/The level of expressed mRNA in the absence of chemical substance,yeast gene YJR052W,2.3
same,The level of expressed mRNA in the presence of chemical substance/The level of expressed mRNA in the absence of chemical substance,yeast gene YKL145W,2.7
same,The level of expressed mRNA in the presence of chemical substance/The level of expressed mRNA in the absence of chemical substance,yeast gene YLR103C,0.5
same,The level of expressed mRNA in the presence of chemical substance/The level of expressed mRNA in the absence of chemical substance,yeast gene YLR233C,0.5
same,The level of expressed mRNA in the presence of chemical substance/The level of expressed mRNA in the absence of chemical substance,yeast gene YLR288C,1.3
same,The level of expressed mRNA in the presence of chemical substance/The level of expressed mRNA in the absence of chemical substance,yeast gene YML032C,1.1
same,The level of expressed mRNA in the presence of chemical substance/The level of expressed mRNA in the absence of chemical substance,yeast gene YML058W,1.2
same,The level of expressed mRNA in the presence of chemical substance/The level of expressed mRNA in the absence of chemical substance,yeast gene YMR035W,1.6
same,The level of expressed mRNA in the presence of chemical substance/The level of expressed mRNA in the absence of chemical substance,yeast gene YMR072W,1.2
same,The level of expressed mRNA in the presence of chemical substance/The level of expressed mRNA in the absence of chemical substance,yeast gene YMR096W,3.7
same,The level of expressed mRNA in the presence of chemical substance/The level of expressed mRNA in the absence of chemical substance,yeast gene YMR284W,1.8
same,The level of expressed mRNA in the presence of chemical substance/The level of expressed mRNA in the absence of chemical substance,yeast gene YNL213C,1.5
same,The level of expressed mRNA in the presence of chemical substance/The level of expressed mRNA in the absence of chemical substance,yeast gene YNL250W,2.3
same,The level of expressed mRNA in the presence of chemical substance/The level of expressed mRNA in the absence of chemical substance,yeast gene YNL261W,1.5
same,The level of expressed mRNA in the presence of chemical substance/The level of expressed mRNA in the absence of chemical substance,yeast gene YNL312W,2.5
same,The level of expressed mRNA in the presence of chemical substance/The level of expressed mRNA in the absence of chemical substance,yeast gene YOL043C,1.8
same,The level of expressed mRNA in the presence of chemical substance/The level of expressed mRNA in the absence of chemical substance,yeast gene YOR005C,1.5
same,The level of expressed mRNA in the presence of chemical substance/The level of expressed mRNA in the absence of chemical substance,yeast gene YOR386W,3.0
same,The level of expressed mRNA in the presence of chemical substance/The level of expressed mRNA in the absence of chemical substance,yeast gene YPL022W,1.6
same,The level of expressed mRNA in the presence of chemical substance/The level of expressed mRNA in the absence of chemical substance,yeast gene YPL164C,2.0
same,The level of expressed mRNA in the presence of chemical substance/The level of expressed mRNA in the absence of chemical substance,yeast gene YPL194W,3.1
same,The level of expressed mRNA in the presence of chemical substance/The level of expressed mRNA in the absence of chemical substance,yeast gene YPR025C,1.7
